What was measured:
Assay in all cases: relative viability (nuclei count vs DMSO), 5 days (fraction); higher = more cells survive
Palbociclib + Trametinib = compound: CC(=O)c1c(C)c2cnc(Nc3ccc(N4CCNCC4)cn3)nc2n(C2CCCC2)c1=O [Palbociclib] + CC(=O)Nc1cccc(-n2c(=O)n(C3CC3)c(=O)c3c(Nc4ccc(I)cc4F)n(C)c(=O)c(C)c32)c1 [Trametinib] (partner 0.02 µM)
Procedure, shortened: (§1)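 Medians of duplicate plates are given as relative viability. That measure is the nuclei count in treated wells divided by the count in vehicle wells. Counts were taken on 4× images of lung cancer cell lines in 1536-well plates, 5 days after pin-tool dosing the day after seeding with one drug alone or a fixed anchor-drug dose plus five library-drug doses (not always all listed) in √10 steps.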

Palbociclib + Navitoclax = compound: CC(=O)c1c(C)c2cnc(Nc3ccc(N4CCNCC4)cn3)nc2n(C2CCCC2)c1=O [Palbociclib] + CC1(C)CCC(c2ccc(Cl)cc2)=C(CN2CCN(c3ccc(C(=O)NS(=O)(=O)c4ccc(N[C@H](CCN5CCOCC5)CSc5ccccc5)c(S(=O)(=O)C(F)(F)F)c4)cc3)CC2)C1 [Navitoclax] (partner 0.5 µM)
Procedure, shortened: as §1

Palbociclib + Foretinib = compound: CC(=O)c1c(C)c2cnc(Nc3ccc(N4CCNCC4)cn3)nc2n(C2CCCC2)c1=O [Palbociclib] + COc1cc2c(Oc3ccc(NC(=O)C4(C(=O)Nc5ccc(F)cc5)CC4)cc3F)ccnc2cc1OCCCN1CCOCC1 [Foretinib] (partner 0.25 µM)
Procedure, shortened: as §1

Palbociclib + Tozasertib = compound: CC(=O)c1c(C)c2cnc(Nc3ccc(N4CCNCC4)cn3)nc2n(C2CCCC2)c1=O [Palbociclib] + Cc1cc(Nc2cc(N3CCN(C)CC3)nc(Sc3ccc(NC(=O)C4CC4)cc3)n2)n[nH]1 [Tozasertib] (partner 0.1 µM)
Procedure, shortened: as §1

| Cell Line | relative viability (Palbociclib + Trametinib; first compound 0.01 µM) | relative viability (Palbociclib + Trametinib; first compound 0.03162 µM) | relative viability (Palbociclib + Trametinib; first compound 0.1 µM) | relative viability (Palbociclib + Trametinib; first compound 0.3162 µM) | relative viability (Palbociclib + Trametinib; first compound 1 µM) | relative viability (Palbociclib + Navitoclax; first compound 0.01 µM) | relative viability (Palbociclib + Navitoclax; first compound 0.03162 µM) | relative viability (Palbociclib + Navitoclax; first compound 0.1 µM) | relative viability (Palbociclib + Navitoclax; first compound 0.3162 µM) | relative viability (Palbociclib + Navitoclax; first compound 1 µM) | relative viability (Palbociclib + Foretinib; first compound 0.01 µM) | relative viability (Palbociclib + Foretinib; first compound 0.03162 µM) | relative viability (Palbociclib + Foretinib; first compound 0.1 µM) | relative viability (Palbociclib + Foretinib; first compound 0.3162 µM) | relative viability (Palbociclib + Foretinib; first compound 1 µM) | relative viability (Palbociclib + Tozasertib; first compound 0.01 µM) | relative viability (Palbociclib + Tozasertib; first compound 0.03162 µM) | relative viability (Palbociclib + Tozasertib; first compound 0.1 µM) | relative viability (Palbociclib + Tozasertib; first compound 0.3162 µM) | relative viability (Palbociclib + Tozasertib; first compound 1 µM) |
| --- | --- | --- | --- | --- | --- | --- | --- | --- | --- | --- | --- | --- | --- | --- | --- | --- | --- | --- | --- | --- |
| 201T | 0.733 | 0.684 | 0.71 | 0.692 | 0.609 | 1.22 | 1.2 | 1.08 | 1.08 | 1.01 | 0.932 | 0.841 | 0.72 | 0.77 | 0.419 | 0.984 | 0.906 | 0.914 | 0.797 | 0.614 |
| A549 | – | – | – | – | – | 1.09 | 0.904 | 0.667 | 0.515 | 0.335 | 0.925 | 0.831 | 0.754 | 0.635 | 0.43 | – | – | – | – | – |
| A-427 | 0.846 | 0.703 | 0.628 | 0.613 | 0.587 | 0.978 | 0.941 | 0.869 | 0.874 | 0.656 | 0.944 | 1.01 | 0.993 | 0.729 | 0.607 | 0.203 | 0.205 | 0.224 | 0.227 | 0.209 |
| ABC-1 | – | – | – | – | – | – | – | – | – | – | 0.963 | 0.808 | 0.852 | 0.763 | 0.709 | 0.161 | 0.184 | 0.18 | 0.215 | 0.217 |
| BEN | 1.05 | 0.949 | 0.553 | 0.873 | 0.598 | 0.0758 | 0.0563 | 0.0761 | 0.0645 | 0.0615 | 0.729 | 0.422 | 0.607 | 0.556 | 0.376 | 0.563 | 0.429 | 0.541 | 0.608 | 0.697 |
| CAL-12T | 0.437 | 0.316 | 0.207 | 0.204 | 0.166 | 1.23 | 1.01 | 0.896 | 0.848 | 0.767 | 1.01 | 0.898 | 0.901 | 0.791 | 0.674 | 0.294 | 0.307 | 0.305 | 0.259 | 0.271 |
| COR-L23 | 0.666 | 0.521 | 0.362 | 0.434 | 0.209 | 0.977 | 0.759 | 0.681 | 0.544 | 0.477 | 0.95 | 0.745 | 0.911 | 0.729 | 0.58 | 0.197 | 0.146 | 0.16 | 0.157 | 0.124 |
| COR-L 105 | 0.477 | 0.435 | 0.36 | 0.407 | 0.389 | 0.943 | 0.808 | 0.669 | 0.586 | 0.401 | 0.841 | 0.826 | 0.992 | 0.595 | 0.449 | 0.379 | 0.335 | 0.341 | 0.308 | 0.318 |
| Calu-6 | – | – | – | – | – | 0.863 | 0.792 | 0.683 | 0.549 | 0.479 | 0.879 | 0.808 | 0.714 | 0.672 | 0.463 | – | – | – | – | – |
| ChaGo-K-1 | 0.852 | – | 0.874 | 0.939 | 0.954 | 1.22 | 0.463 | 1.08 | 1.09 | 1.18 | 0.928 | 0.797 | 1.1 | 0.959 | 0.977 | 0.218 | 0.21 | 0.25 | 0.225 | 0.223 |
| EKVX | 0.3 | – | 0.247 | 0.251 | 0.244 | 1.11 | 0.826 | 0.755 | 0.764 | 0.476 | 0.907 | 0.412 | 0.748 | 0.757 | 0.463 | 0.366 | 0.396 | 0.341 | 0.398 | 0.311 |
| EMC-BAC-2 | 0.815 | 0.797 | 0.718 | 0.694 | 0.512 | 1.16 | 1.07 | 1.06 | 0.953 | 0.731 | 1 | 0.931 | 0.804 | 0.821 | 0.61 | 0.24 | 0.298 | 0.277 | 0.285 | 0.29 |
| EPLC-272H | 0.286 | – | 0.268 | 0.244 | 0.25 | 1.21 | – | 1.06 | 1.06 | 0.833 | 0.794 | – | 0.572 | 0.689 | 0.435 | 0.326 | – | 0.331 | 0.339 | 0.42 |
| H3255 | 0.606 | 0.588 | 0.539 | 0.48 | 0.412 | 0.632 | 0.512 | 0.406 | 0.567 | 0.338 | 0.879 | 0.898 | 0.693 | 0.641 | 0.57 | 0.702 | 0.613 | 0.522 | 0.591 | 0.309 |
| HARA | 0.654 | 0.545 | 0.763 | 0.627 | 0.338 | 1.15 | 1.11 | 0.997 | 0.91 | 0.662 | 0.828 | – | 0.763 | 0.534 | 0.332 | 0.108 | – | 0.0705 | 0.102 | 0.0769 |
| HCC-15 | 0.409 | – | 0.325 | 0.37 | 0.304 | 0.672 | – | 0.622 | 0.641 | 0.529 | 1 | – | 0.902 | 0.892 | 0.716 | 0.454 | – | 0.38 | 0.372 | 0.343 |
| HCC-44 | 1.07 | 1.1 | 1.02 | 0.987 | 1.1 | 0.948 | 0.953 | 1.03 | 0.99 | 1.02 | – | – | – | – | – | 0.871 | 0.781 | 1.1 | 1.1 | 1.11 |
| HCC-78 | 0.869 | 0.62 | 0.524 | 0.531 | 0.374 | 0.812 | 0.473 | 0.382 | 0.447 | 0.201 | 0.54 | 0.453 | 0.481 | 0.509 | 0.364 | 0.451 | 0.383 | 0.319 | 0.354 | 0.334 |
